Experimental data reported in PubChem BioAssay AID1224901.

Tested on: MCF7 viability, PrestoBlue fluorescence
Assay: growth inhibition of MCF7 cells, dose response, mTOR inhibitor project (AID 1224901)

With `CCOC(Cn1nc(-c2ccc3oc(N)nc3c2)c2c(N)ncnc21)OCC` the EC50 was 8 nM.
